Literature values as cited in US8183203B2, “Methods for treating pulmonary hypertension and compositions comprising vasoactive intestinal peptide” (Avant Garde Therapeutics & Technologies LLC, priority 1999, dated 2012).

Tests used:
Na+ channels = conditions: isolated rabbit ventricular myocytes, acute
[1] = tested on: dogs left in ventricular fibrillation; conditions: four dogs, ventricular fibrillation for seven minutes, 4 μg/kg IV bolus, then defibrillated

Compound | time to peak action (onset of inotropic action) (isolated rat hearts) | maximum dp/dt (contractility) after a bolus injection (isolated rat hearts) | burst mode gating of Na+ channels (Na+ channels) | dogs successfully resuscitated [1]
N[C@@H](Cc1cc(I)c(Oc2ccc(O)c(I)c2)c(I)c1)C(=O)O [T3, 3,5,3′ triiodothyronine] | 15 s | rapidly and significantly increased | acutely increased | Three out of four
CC(C)NCC(O)c1ccc(O)c(O)c1 (stereo not drawn) [isoproterenol] | 60 s | also increased |  | 
